# Experiments:
# [1] = target: T1, human EGFR (His672-Ala1210) (Homo sapiens, UniProt P00533); assay: EGFR kinase inhibition assay (HTScan EGF Receptor Kinase Assay Kit); format: biochemical
# T1 construct: a construct expressing human EGFR (His672-Ala1210); GST (N); purchased Cell Signaling Technologies; host or cells: baculovirus expression system
# Protocol: The ability of compounds to inhibit receptor kinase (EGFR) activity can be assayed using HTSCAN™ EGF Receptor Kinase Assay Kits (Cell Signaling Technologies, Danvers, Mass.). […] The protein is purified by one-step affinity chromatography using glutathione-agarose.
# Immediately transfer enzyme from −80° C. to ice. Allow enzyme to thaw on ice. […] Return immediately to ice. […] Incubate reaction plate at room temperature for 30 minutes. […] Add 100 μl/well primary antibody. Incubate at room temperature for 60 minutes. […] Add 100 μl/well diluted antibody. Incubate at room temperature for 30 minutes. Wash five times with 200 μl/well PBS/T. Add 100 μl/well DELFIA® Enhancement Solution. Incubate at room temperature for 5 minutes.
# HER2/ErbB2 = HER2/ErbB2 (Homo sapiens, UniProt P04626); assay: HER2/ErbB2 inhibition; format: biochemical
# Sequence of HER2/ErbB2 (P04626 23-1255): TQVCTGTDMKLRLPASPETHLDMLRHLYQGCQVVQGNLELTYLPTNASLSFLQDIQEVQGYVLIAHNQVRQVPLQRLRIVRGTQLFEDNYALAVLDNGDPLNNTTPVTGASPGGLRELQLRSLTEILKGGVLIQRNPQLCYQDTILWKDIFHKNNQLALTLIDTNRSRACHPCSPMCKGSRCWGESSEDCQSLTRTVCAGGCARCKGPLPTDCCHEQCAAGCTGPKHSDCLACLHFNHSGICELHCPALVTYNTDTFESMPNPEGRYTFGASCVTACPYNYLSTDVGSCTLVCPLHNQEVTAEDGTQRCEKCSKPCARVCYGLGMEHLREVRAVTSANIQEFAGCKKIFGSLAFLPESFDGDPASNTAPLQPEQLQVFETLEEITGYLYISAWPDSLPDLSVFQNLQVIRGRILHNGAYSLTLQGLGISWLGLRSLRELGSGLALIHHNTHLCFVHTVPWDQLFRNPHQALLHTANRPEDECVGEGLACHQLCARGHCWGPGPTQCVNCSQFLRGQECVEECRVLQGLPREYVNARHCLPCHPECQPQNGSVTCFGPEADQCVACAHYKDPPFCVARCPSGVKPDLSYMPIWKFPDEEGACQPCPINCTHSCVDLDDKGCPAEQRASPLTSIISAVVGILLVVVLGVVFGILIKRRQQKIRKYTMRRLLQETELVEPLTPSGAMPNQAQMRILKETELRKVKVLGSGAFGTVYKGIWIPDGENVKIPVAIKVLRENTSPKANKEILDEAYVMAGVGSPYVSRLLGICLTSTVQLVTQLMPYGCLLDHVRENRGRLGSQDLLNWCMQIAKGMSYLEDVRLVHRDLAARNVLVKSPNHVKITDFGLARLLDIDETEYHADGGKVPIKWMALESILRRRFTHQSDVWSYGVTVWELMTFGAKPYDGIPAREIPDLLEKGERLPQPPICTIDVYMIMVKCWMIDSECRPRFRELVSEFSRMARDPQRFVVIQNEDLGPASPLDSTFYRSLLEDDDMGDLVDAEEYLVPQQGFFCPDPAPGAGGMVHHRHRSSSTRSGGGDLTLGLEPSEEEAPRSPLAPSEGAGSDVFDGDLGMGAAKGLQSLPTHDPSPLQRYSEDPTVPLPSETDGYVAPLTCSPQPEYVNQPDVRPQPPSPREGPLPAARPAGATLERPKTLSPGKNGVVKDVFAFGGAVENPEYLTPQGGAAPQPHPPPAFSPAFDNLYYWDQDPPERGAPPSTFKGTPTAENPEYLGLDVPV
# [2] = test system: HDAC (HeLa nuclear extract); assay: HDAC fluorimetric assay (HDAC enzymatic activity); format: biochemical
# Protocol: HDAC inhibitors are screened using an HDAC fluorimetric assay kit (AK-500, Biomol, Plymouth Meeting, Pa.).
# Each assay is setup as follows: Defrost all kit components and keep on ice until use. Dilute HeLa nuclear extract 1:29 in Assay Buffer (50 mM Tris/Cl, pH 8.0, 137 mM NaCl, 2.7 mM KCl, 1 mM MgCl2). Prepare dilutions of Trichostatin A (TSA, positive control) and test compounds in assay buffer (5× of final concentration). Dilute Fluor de Lys™ Substrate in assay buffer to 100 uM (50 fold=2× final). Dilute Fluor de Lys™ developer concentrate 20-fold (e.g. 50 μl plus 950 μl Assay Buffer) in cold assay buffer. Second, dilute the 0.2 mM Trichostatin A 100-fold in the 1× Developer (e.g. 10 μl in 1 ml; final Trichostatin A concentration in the 1× Developer=2 μM; final concentration after addition to HDAC/Substrate reaction=1 μM). Add Assay buffer, diluted trichostatin A or test inhibitor to appropriate wells of the microtiter plate. Add diluted HeLa extract or other HDAC sample to all wells except for negative controls. Allow diluted Fluor de Lys™ Substrate and the samples in the microtiter plate to equilibrate to assay temperature (e.g. 25 or 37° C. Initiate HDAC reactions by adding diluted substrate (25 μl) to each well and mixing thoroughly.
# Allow HDAC reactions to proceed for 1 hour and then stopped them by addition of Fluor de Lys™ Developer (50 μl). Incubate plate at room temperature (25° C.) for 10-15 min. Read samples in a microtiter-plate reading fluorimeter capable of excitation at a wavelength in the range 350-380 nm and detection of emitted light in the range 440-460 nm.
# T1 sequence (P00533 672-1210): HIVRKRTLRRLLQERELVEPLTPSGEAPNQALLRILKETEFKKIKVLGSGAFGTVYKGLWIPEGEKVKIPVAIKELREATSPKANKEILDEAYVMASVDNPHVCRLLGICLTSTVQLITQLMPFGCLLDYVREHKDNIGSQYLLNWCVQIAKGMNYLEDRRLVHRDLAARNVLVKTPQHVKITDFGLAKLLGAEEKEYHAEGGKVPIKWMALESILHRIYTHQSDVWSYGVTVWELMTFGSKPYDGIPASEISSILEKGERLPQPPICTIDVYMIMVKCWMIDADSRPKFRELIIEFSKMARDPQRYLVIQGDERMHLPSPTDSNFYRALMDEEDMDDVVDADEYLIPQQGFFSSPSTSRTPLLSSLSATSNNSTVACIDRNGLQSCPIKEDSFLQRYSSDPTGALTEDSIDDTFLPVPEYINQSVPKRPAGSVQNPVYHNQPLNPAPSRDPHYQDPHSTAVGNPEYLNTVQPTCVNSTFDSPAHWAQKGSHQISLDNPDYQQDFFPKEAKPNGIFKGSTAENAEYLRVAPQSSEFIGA
IC50 [1] [nM],IC50 (HER2/ErbB2) [nM],IC50 [2] [nM],melting point [°C],SMILES
< 100,–,–,–,C#Cc1cccc(Nc2ncnc3cc(OC)c(OCCCCC(=O)O)cc23)c1
< 100,100 to 1000,> 10000,–,C#Cc1cccc(Nc2ncnc3cc(OC)c(OCCCCCCC(=O)O)cc23)c1
< 100,–,> 10000,–,C#Cc1cc(Nc2ncnc3cc(OC)c(OCCCCCCC(=O)O)cc23)ccc1O
–,–,> 10000,–,C#Cc1cc(Nc2ncnc3cc(OC)c(OCCCCC(=O)O)cc23)ccc1O
–,–,–,161 to 163,"CCOC(=O)COc1ccc2ncnc(Nc3ccc(F)c(Cl)c3)c2c1 [Compound 0210-13, Ethyl 2-(4-(3-chloro-4-fluorophenylamino)quinazolin-6-yloxy)acetate]"
